Earlier results in patent publication US20190282591A1, “FINASTERIDE AND SILDENAFIL COMPOSITIONS AND APPLICATIONS” (BLUE GOOSE DRUGS INC., priority 2018, published 2019).
Values belong to the compound of their own block, whether it stands above or below them.

What was measured:
[1] = active metabolite accounts for about one-half
[2] = system: dihydrotestosterone (DHT) levels
[3] = biological target: T1, 5α-reductase type I isoenzyme (Homo sapiens, UniProt P18405); conditions: 5α-reductase type I vs type II
T1 sequence (P18405 1-259): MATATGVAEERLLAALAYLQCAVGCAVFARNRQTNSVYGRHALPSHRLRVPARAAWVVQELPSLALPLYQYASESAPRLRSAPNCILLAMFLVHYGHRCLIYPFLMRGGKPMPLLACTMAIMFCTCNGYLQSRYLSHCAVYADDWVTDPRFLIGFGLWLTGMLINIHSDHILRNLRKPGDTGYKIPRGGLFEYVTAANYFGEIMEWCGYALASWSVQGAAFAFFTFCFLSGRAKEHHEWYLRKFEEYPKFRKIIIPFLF

5β-reductase (AKR1D1) = biological target: T2, 5β-reductase (AKR1D1) (Homo sapiens, UniProt P51857); conditions: compared with 5α-reductase type I
T2 sequence (P51857 1-326): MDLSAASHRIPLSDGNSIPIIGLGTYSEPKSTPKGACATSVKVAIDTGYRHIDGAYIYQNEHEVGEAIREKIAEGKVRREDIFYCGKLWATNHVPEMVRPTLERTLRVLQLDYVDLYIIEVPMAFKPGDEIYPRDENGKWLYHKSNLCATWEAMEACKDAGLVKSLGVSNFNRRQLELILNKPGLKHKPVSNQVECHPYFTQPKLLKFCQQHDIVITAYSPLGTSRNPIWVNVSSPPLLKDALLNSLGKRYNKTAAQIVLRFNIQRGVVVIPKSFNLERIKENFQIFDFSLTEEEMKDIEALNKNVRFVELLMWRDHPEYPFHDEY

SMILES: CCCc1nn(C)c2c(=O)[nH]c(-c3cc(S(=O)(=O)N4CCN(C)CC4)ccc3OCC)nc12.O=C(O)CC(O)(CC(=O)O)C(=O)O [Sildenafil citrate, 5-[2-ethoxy-5-(4-methylpiperazin-1-yl)sulfonylphenyl]-1-methyl-3-propyl-4H-pyrazolo[4,3-d]pyrimidin-7-one; 2-hydroxypropane-1,2,3-tricarboxylic acid]
bioavailability after oral administration [1]: 40%

SMILES: C[C@]12C=CC(=O)N[C@@H]1CC[C@@H]1[C@@H]2CC[C@]2(C)[C@@H](C(=O)Nc3cc(C(F)(F)F)ccc3C(F)(F)F)CC[C@@H]12 [dutasteride]
reduction of DHT levels in the entire body ([2]; entire body): more than 99%

less inhibitory potency for type I as compared to type II [3]: more than 100 fold
SMILES: CC(C)(C)NC(=O)[C@H]1CC[C@H]2[C@@H]3CC[C@H]4NC(=O)C=C[C@]4(C)[C@H]3CC[C@]12C [finasteride, (5α,17β)-N-(1,1-dimethylethyl)-3-oxo-4-azaandrost-1-ene-17-carboxamide]
decrease in prostate DHT levels ([2]; prostate, where type II isoenzyme predominates): 85 to 90%
decrease in serum DHT levels ([2]; serum): 65 to 70%
affinity for 5β-reductase relative to 5α-reductase (5β-reductase (AKR1D1)): an order of magnitude less than 5α-reductase type I
